Data published in paper PMC8037182, “Solvothermal Synthesis of Multiple Dihydropyrimidinones at a Time as Inhibitors of Eg5” (Molecules, 2021).

Tests used:
Hela cell line = assay: Cytotoxicity MTS assay, Hela cell line; assay type: cell-based; details: for OD490 value, Mean / OD490 value, Well 1 / OD490 value, Well 2 / OD490 value, Well 3: Hela cell line, MTS;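 on OD490 value, Mean: blank control wells received 0.025% DMSO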;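 on OD490 value, Well 1: blank control wells received 0.025% DMSO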;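 on OD490 value, Well 2: blank control wells received 0.025% DMSO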;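 on OD490 value, Well 3: blank control wells received 0.025% DMSO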
Method in brief: (§1)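 Cells were seeded at 1000 per well, allowed 24 h, then exposed to compounds at final concentrations of 0.5 to 100 µM for 24 h, with 0.025% DMSO as blank. MTS reagent was added for 2 h at 37 °C and absorbance read at 490 nm. IC50 came from non-linear regression of viability against concentration.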

Caco-2 cell line = assay: Cytotoxicity MTS assay, Caco-2 cell line; assay type: cell-based; details: for OD490 Mean / OD490 Well 1 / OD490 Well 2 / OD490 Well 3: Caco-2 cell line
Method in brief: as §1

CCOC(=O)c1[nH]c(C2NC(=O)NC(C)=C2C(=O)Nc2ccccc2C)c(C(=O)OC)c1C (centres unmarked) [D4]
OD490 value, Mean (Hela cell line; 0.5μM, first assay): 2.5619 | OD490 value, Well 1 (Hela cell line; 0.5μM, first assay): 2.3169 | OD490 value, Well 2 (Hela cell line; 0.5μM, first assay): 2.6787 | OD490 value, Well 3 (Hela cell line; 0.5μM, first assay): 2.6902 | OD490 value, Mean (Hela cell line; 0.5μM, second assay): 2.6585 | OD490 value, Well 1 (Hela cell line; 0.5μM, second assay): 2.7756 | OD490 value, Well 2 (Hela cell line; 0.5μM, second assay): 2.2036 | OD490 value, Well 3 (Hela cell line; 0.5μM, second assay): 2.9963 | OD490 value, Mean (Hela cell line; 0.5μM, third assay): 2.6298 | OD490 value, Well 1 (Hela cell line; 0.5μM, third assay): 2.6541 | OD490 value, Well 2 (Hela cell line; 0.5μM, third assay): 2.5689 | OD490 value, Well 3 (Hela cell line; 0.5μM, third assay): 2.6665 | OD490 value, Mean (Hela cell line; 1μM, first assay): 2.4999 | OD490 value, Well 1 (Hela cell line; 1μM, first assay): 2.4427 | OD490 value, Well 2 (Hela cell line; 1μM, first assay): 2.5466 | OD490 value, Well 3 (Hela cell line; 1μM, first assay): 2.5103 | OD490 value, Mean (Hela cell line; 1μM, second assay): 2.6707 | OD490 value, Well 1 (Hela cell line; 1μM, second assay): 2.6654 | OD490 value, Well 2 (Hela cell line; 1μM, second assay): 2.6879 | OD490 value, Well 3 (Hela cell line; 1μM, second assay): 2.6588 | OD490 value, Mean (Hela cell line; 1μM, third assay): 2.5654 | OD490 value, Well 1 (Hela cell line; 1μM, third assay): 2.6540 | OD490 value, Well 2 (Hela cell line; 1μM, third assay): 2.5421 | OD490 value, Well 3 (Hela cell line; 1μM, third assay): 2.5000 | OD490 value, Mean (Hela cell line; 10μM, first assay): 2.7063 | OD490 value, Well 1 (Hela cell line; 10μM, first assay): 2.6331 | OD490 value, Well 2 (Hela cell line; 10μM, first assay): 2.7562 | OD490 value, Well 3 (Hela cell line; 10μM, first assay): 2.7295 | OD490 value, Mean (Hela cell line; 10μM, second assay): 2.7726 | OD490 value, Well 1 (Hela cell line; 10μM, second assay): 2.6985 | OD490 value, Well 2 (Hela cell line; 10μM, second assay): 2.7856 | OD490 value, Well 3 (Hela cell line; 10μM, second assay): 2.8336 | OD490 value, Mean (Hela cell line; 10μM, third assay): 2.5863 | OD490 value, Well 1 (Hela cell line; 10μM, third assay): 2.3545 | OD490 value, Well 2 (Hela cell line; 10μM, third assay): 2.7454 | OD490 value, Well 3 (Hela cell line; 10μM, third assay): 2.6589 | OD490 value, Mean (Hela cell line; 25μM, first assay): 2.5844 | OD490 value, Well 1 (Hela cell line; 25μM, first assay): 2.5014 | OD490 value, Well 2 (Hela cell line; 25μM, first assay): 2.5977 | OD490 value, Well 3 (Hela cell line; 25μM, first assay): 2.6541 | OD490 value, Mean (Hela cell line; 25μM, second assay): 2.6351 | OD490 value, Well 1 (Hela cell line; 25μM, second assay): 2.6354 | OD490 value, Well 2 (Hela cell line; 25μM, second assay): 2.6289 | OD490 value, Well 3 (Hela cell line; 25μM, second assay): 2.6410 | OD490 value, Mean (Hela cell line; 25μM, third assay): 2.6063 | OD490 value, Well 1 (Hela cell line; 25μM, third assay): 2.5658 | OD490 value, Well 2 (Hela cell line; 25μM, third assay): 2.6542 | OD490 value, Well 3 (Hela cell line; 25μM, third assay): 2.5988 | OD490 value, Mean (Hela cell line; 50μM, first assay): 2.4897 | OD490 value, Well 1 (Hela cell line; 50μM, first assay): 2.2013 | OD490 value, Well 2 (Hela cell line; 50μM, first assay): 2.5633 | OD490 value, Well 3 (Hela cell line; 50μM, first assay): 2.7046 | OD490 value, Mean (Hela cell line; 50μM, second assay): 2.4794 | OD490 value, Well 1 (Hela cell line; 50μM, second assay): 2.5532 | OD490 value, Well 2 (Hela cell line; 50μM, second assay): 2.4198 | OD490 value, Well 3 (Hela cell line; 50μM, second assay): 2.4652 | OD490 value, Mean (Hela cell line; 50μM, third assay): 2.5366 | OD490 value, Well 1 (Hela cell line; 50μM, third assay): 2.4650 | OD490 value, Well 2 (Hela cell line; 50μM, third assay): 2.5462 | OD490 value, Well 3 (Hela cell line; 50μM, third assay): 2.5985 | OD490 value, Mean (Hela cell line; 100μM, first assay): 1.9103 | OD490 value, Well 1 (Hela cell line; 100μM, first assay): 1.9024 | OD490 value, Well 2 (Hela cell line; 100μM, first assay): 1.9524 | OD490 value, Well 3 (Hela cell line; 100μM, first assay): 1.8761 | OD490 value, Mean (Hela cell line; 100μM, second assay): 2.0041 | OD490 value, Well 1 (Hela cell line; 100μM, second assay): 2.0124 | OD490 value, Well 2 (Hela cell line; 100μM, second assay): 2.0036 | OD490 value, Well 3 (Hela cell line; 100μM, second assay): 1.9963 | OD490 value, Mean (Hela cell line; 100μM, third assay): 1.9351 | OD490 value, Well 1 (Hela cell line; 100μM, third assay): 1.8989 | OD490 value, Well 2 (Hela cell line; 100μM, third assay): 1.9478 | OD490 value, Well 3 (Hela cell line; 100μM, third assay): 1.9587 | IC50 (Hela cell line; MTS assay, 24 h exposure): > 150 µM | OD490 Mean (Caco-2 cell line; 0.5μM, first assay): 0.5704 | OD490 Well 1 (Caco-2 cell line; 0.5μM, first assay): 0.5884 | OD490 Well 2 (Caco-2 cell line; 0.5μM, first assay): 0.5582 | OD490 Well 3 (Caco-2 cell line; 0.5μM, first assay): 0.5647 | OD490 Mean (Caco-2 cell line; 0.5μM, second assay): 0.5955 | OD490 Well 1 (Caco-2 cell line; 0.5μM, second assay): 0.5407 | OD490 Well 2 (Caco-2 cell line; 0.5μM, second assay): 0.6416 | OD490 Well 3 (Caco-2 cell line; 0.5μM, second assay): 0.6041 | OD490 Mean (Caco-2 cell line; 0.5μM, third assay): 0.6609 | OD490 Well 1 (Caco-2 cell line; 0.5μM, third assay): 0.6698 | OD490 Well 2 (Caco-2 cell line; 0.5μM, third assay): 0.6201 | OD490 Well 3 (Caco-2 cell line; 0.5μM, third assay): 0.6928 | OD490 Mean (Caco-2 cell line; 1μM, first assay): 0.5753 | OD490 Well 1 (Caco-2 cell line; 1μM, first assay): 0.5948 | OD490 Well 2 (Caco-2 cell line; 1μM, first assay): 0.5673 | OD490 Well 3 (Caco-2 cell line; 1μM, first assay): 0.5637 | OD490 Mean (Caco-2 cell line; 1μM, second assay): 0.6402 | OD490 Well 1 (Caco-2 cell line; 1μM, second assay): 0.6433 | OD490 Well 2 (Caco-2 cell line; 1μM, second assay): 0.6589 | OD490 Well 3 (Caco-2 cell line; 1μM, second assay): 0.6185 | OD490 Mean (Caco-2 cell line; 1μM, third assay): 0.6218 | OD490 Well 1 (Caco-2 cell line; 1μM, third assay): 0.6635 | OD490 Well 2 (Caco-2 cell line; 1μM, third assay): 0.6890 | OD490 Well 3 (Caco-2 cell line; 1μM, third assay): 0.5129 | OD490 Mean (Caco-2 cell line; 10μM, first assay): 0.5338 | OD490 Well 1 (Caco-2 cell line; 10μM, first assay): 0.5500 | OD490 Well 2 (Caco-2 cell line; 10μM, first assay): 0.5282 | OD490 Well 3 (Caco-2 cell line; 10μM, first assay): 0.5233 | OD490 Mean (Caco-2 cell line; 10μM, second assay): 0.5742 | OD490 Well 1 (Caco-2 cell line; 10μM, second assay): 0.5277 | OD490 Well 2 (Caco-2 cell line; 10μM, second assay): 0.6414 | OD490 Well 3 (Caco-2 cell line; 10μM, second assay): 0.5536 | OD490 Mean (Caco-2 cell line; 10μM, third assay): 0.5630 | OD490 Well 1 (Caco-2 cell line; 10μM, third assay): 0.5899 | OD490 Well 2 (Caco-2 cell line; 10μM, third assay): 0.5614 | OD490 Well 3 (Caco-2 cell line; 10μM, third assay): 0.5377 | OD490 Mean (Caco-2 cell line; 25μM, first assay): 0.5869 | OD490 Well 1 (Caco-2 cell line; 25μM, first assay): 0.5783 | OD490 Well 2 (Caco-2 cell line; 25μM, first assay): 0.5766 | OD490 Well 3 (Caco-2 cell line; 25μM, first assay): 0.6058 | OD490 Mean (Caco-2 cell line; 25μM, second assay): 0.5033 | OD490 Well 1 (Caco-2 cell line; 25μM, second assay): 0.5352 | OD490 Well 2 (Caco-2 cell line; 25μM, second assay): 0.4777 | OD490 Well 3 (Caco-2 cell line; 25μM, second assay): 0.4969 | OD490 Mean (Caco-2 cell line; 25μM, third assay): 0.5111 | OD490 Well 1 (Caco-2 cell line; 25μM, third assay): 0.5123 | OD490 Well 2 (Caco-2 cell line; 25μM, third assay): 0.4876 | OD490 Well 3 (Caco-2 cell line; 25μM, third assay): 0.5333 | OD490 Mean (Caco-2 cell line; 50μM, first assay): 0.5039 | OD490 Well 1 (Caco-2 cell line; 50μM, first assay): 0.4576 | OD490 Well 2 (Caco-2 cell line; 50μM, first assay): 0.5055 | OD490 Well 3 (Caco-2 cell line; 50μM, first assay): 0.5485 | OD490 Mean (Caco-2 cell line; 50μM, second assay): 0.4399 | OD490 Well 1 (Caco-2 cell line; 50μM, second assay): 0.41 | OD490 Well 2 (Caco-2 cell line; 50μM, second assay): 0.4612 | OD490 Well 3 (Caco-2 cell line; 50μM, second assay): 0.4486 | OD490 Mean (Caco-2 cell line; 50μM, third assay): 0.4077 | OD490 Well 1 (Caco-2 cell line; 50μM, third assay): 0.4412 | OD490 Well 2 (Caco-2 cell line; 50μM, third assay): 0.4698 | OD490 Well 3 (Caco-2 cell line; 50μM, third assay): 0.3120 | OD490 Mean (Caco-2 cell line; 100μM, first assay): 0.3850 | OD490 Well 1 (Caco-2 cell line; 100μM, first assay): 0.4202 | OD490 Well 2 (Caco-2 cell line; 100μM, first assay): 0.3796 | OD490 Well 3 (Caco-2 cell line; 100μM, first assay): 0.3553 | OD490 Mean (Caco-2 cell line; 100μM, second assay): 0.3934 | OD490 Well 1 (Caco-2 cell line; 100μM, second assay): 0.4418 | OD490 Well 2 (Caco-2 cell line; 100μM, second assay): 0.3643 | OD490 Well 3 (Caco-2 cell line; 100μM, second assay): 0.3741 | OD490 Mean (Caco-2 cell line; 100μM, third assay): 0.4011 | OD490 Well 1 (Caco-2 cell line; 100μM, third assay): 0.3698 | OD490 Well 2 (Caco-2 cell line; 100μM, third assay): 0.4013 | OD490 Well 3 (Caco-2 cell line; 100μM, third assay): 0.4321 | IC50 (Caco-2 cell line; MTS assay, 24 h exposure): 80.5 µM
